Marks after values point to notes of the source that are not given here.
Tests used:
[1] = system: db/db type 2 diabetic mice; assay: Reduction of HbA1c in db/db type 2 diabetic mice after chronic treatment (27 day study); type: in vivo; details: db/db mice
Experimental: This study was done in diabetic mouse model. The animals were divided into three treatment groups—a diabetic control group, a test group and a semaglutide treatment group. Compound 1 of the present disclosure was injected subcutaneously at 0.3 mg/kg dose once a day for 3 days (qd*3) followed by 0.1 mg/kg dose every alternate day for 7 doses (q2d*7) followed by 0.1 mg/kg dose once every four days for two dose cycles (q4d*2). The same dosage regimen was administered in semaglutide treatment group. Measurements of blood glucose levels and body weight were done daily. % HbA1c was measured on Day 0, day 7, day 14 and day 27 by column chromatography. Cumulative food intake was calculated on day 27. % HbA1C data was analyzed by two way ANOVA followed by Bonferroni's posttests using PRISM (Graph Pad version 5.03).

[2] = system: db/db mice (diabetic mouse model); assay: Separate db/db diabetic mouse study, q2d*15 up to day 28, recovery period day 29 to day 45; type: in vivo
How it was run: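 db/db diabetic mice received test compounds subcutaneously at 3.04 or 6.078 nM dose every other day to day 28 (q2d*15), alongside diabetic control and semaglutide groups on the same regimen. Blood glucose and body weight were measured daily, with %HbA1c and insulin on days 0, 14 and 29. An untreated recovery phase ran from day 29 to day 45, with final measurements on day 45.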

[3] = Food intake and body weight recorded in the rat OGTT study; type: in vivo, rats; details: for Body Weight Change (%) Mean / Food Consumption (g) Mean: 1 mg/Kg
How it was run: (§1)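 SD rats (4 per group), fasted 12 h, received a single 1 mg/kg subcutaneous dose of test compound or semaglutide; oral glucose 2 g/kg given at 22, 166 and 334 h post dose. Glucose read by meter at 0–120 min, AUC0-120 by t test; body weight and food intake recorded.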

[4] = system: SD rats; assay: Oral glucose tolerance test (OGTT) in rats; single injection; 1 mg/kg; type: in vivo; details: for Blood Glucose AUC (mg/dL*min) Mean: 1 mg/Kg
How it was run: as §1

[5] = recovery period, earlier dose 12.155 nM
[6] = recovery study, day 45, earlier dose 12.155 nM
[7] = rats, 1 mg/kg s.c. single injection, Day 2
[8] = rats, 1 mg/kg s.c. single injection, Day 4

With Semaglutide [reference compound] the “cumulative food intake vs diabetic control group” value ([1]; 0 to 27th day (FIG. 8)) was “statistically significant reduction in food intake”, the “% HbA1c Mean” value ([1]; Day 0 (before treatment)) was 5.05% and the “% HbA1c % Change vs DC” value ([1]; Day 27, vs Diabetic Control) was −2.26%. The “% HbA1c Mean” value ([1]; Day 27, s.c. 0.3 mg/kg qd*3, 0.1 mg/kg q2d*7, 0.1 mg/kg q4d*2) was 5.03*** %, the “% change in body weight” value ([1]; day 0 to day 27 (FIG. 9)) was −8% and the “Blood Glucose AUC (Day 0-29) % Change Vs Control” value ([2]; 12.155 nM, q2d*15) was −41.78%. The “Blood Glucose AUC (Day 0-29) (mg/dL*days) Mean” value ([2]; 12.155 nM, q2d*15) was 9867.9*** mg/dL*days, the “Body Weight Change Day 29, % Change vs Day 0 Mean” value ([2]; 12.155 nM, q2d*15) was 0.7% and the “Cumulative Food Intake (g) Day 0-29 Mean” value ([2]; 12.155 nM, q2d*15) was 92.0 g. For the same substance, the “% HbA1C Mean” value ([2]; Day 0, 12.15 nM, q2d*15) was 7.66%, the “Insulin (ng/mL) Mean” value ([2]; Day 0, 12.15 nM, q2d*15) was 18.7 ng/mL and the “% HbA1C Mean” value ([2]; Day 14, 12.15 nM, q2d*15) was 7.04%. The “Insulin (ng/mL) Mean” value ([2]; Day 14, 12.15 nM, q2d*15) was 37.5 ng/mL, the “% HbA1C Mean” value ([2]; Day 29, 12.15 nM, q2d*15) was 6.47 *** % and the “Insulin (ng/mL) Mean” value ([2]; Day 29, 12.15 nM, q2d*15) was 48.1** ng/mL. The “Blood Glucose AUC (Day 30-37) % Change vs Control” value [2, 5] was −15.58%, the “Blood Glucose AUC (Day 30-37) (mg/dL*days) Mean” value [2, 5] was 3032.0 mg·days/dL and the “Blood Glucose AUC (Day 38-45) % Change vs Control” value [2, 5] was −5.16%. For the same substance, the “Blood Glucose AUC (Day 38-45) (mg/dL*days) Mean” value [2, 5] was 3415.7 mg·days/dL, the “% HbA1C Mean” value [2, 6] was 7.8% and the “Delta HbA1C vs. DC” value [2, 6] was −0.7. The “Insulin (ng/mL) Mean” value [2, 6] was 19.7 ng/mL, the “Body Weight % Change vs Day 45 Mean” value ([2]; recovery study, earlier dose 12.155 nM) was 9.5% and the “Body Weight Change (%) Mean” value ([3]; 48 h, Exp. 1) was −6.5%. For the same substance, the “Food Consumption (g) Mean” value ([3]; 48 h, Exp. 1) was 17.5 g, the “Body Weight Change (%) Mean” value ([3]; 48 h, Exp. 2) was −8.7% and the “Food Consumption (g) Mean” value ([3]; 48 h, Exp. 2) was 19.3 g. The “Body Weight Change (%) Mean” value ([3]; 154 h, Exp. 1) was 4.5%, the “Food Consumption (g) Mean” value ([3]; 154 h, Exp. 1) was 86.3 g and the “Body Weight Change (%) Mean” value ([3]; 154 h, Exp. 2) was 0.2%. The “Food Consumption (g) Mean” value ([3]; 154 h, Exp. 2) was 50.4 g, the “Body Weight Change (%) Mean” value ([3]; 324 h, Exp. 1) was 11.8% and the “Food Consumption (g) Mean” value ([3]; 324 h, Exp. 1) was 107.9 g. The “Body Weight Change (%) Mean” value ([3]; 324 h, Exp. 2) was 3.8%, the “Food Consumption (g) Mean” value ([3]; 324 h, Exp. 2) was 96.8 g and the “Body Weight (Day 2) % Change vs Baseline” value [3, 7] was −7.65%. The “Body Weight (g) (Day 2) Mean” value [3, 7] was 428.1 g, the “Body Weight (Day 4) % Change vs Baseline” value [3, 8] was −5.3% and the “Body Weight (g) (Day 4) Mean” value [3, 8] was 427.2 g. The “Food Consumption (g) (day 0 to day 2) Mean” value ([3]; rats, 1 mg/kg s.c. single injection, day 0 to day 2) was 5.03*** g, the “Food Consumption (g) (day 0 to day 4) Mean” value ([3]; rats, 1 mg/kg s.c. single injection, day 0 to day 4) was 55.73*** g and the “% Glucose Reduction (Blood Glucose AUC0-120 min)” value ([4]; OGTT, 1 mg/Kg dose, after 24 hrs) was 49.3%. For the same substance, the “Blood Glucose AUC (mg/dL*min) Mean” value ([4]; OGTT, 22 hr, Exp. 1) was 5458.0 mg·min/dL, the “Blood Glucose AUC (mg/dL*min) Mean” value ([4]; OGTT, 22 hr, Exp. 2) was 4258 mg·min/dL and the “Blood Glucose AUC (mg/dL*min) Mean” value ([4]; OGTT, 168 hr, Exp. 1) was 12785.0 mg·min/dL. The “Blood Glucose AUC (mg/dL*min) Mean” value ([4]; OGTT, 168 hr, Exp. 2) was 7410 mg·min/dL, the “Blood Glucose AUC (mg/dL*min) Mean” value ([4]; OGTT, 336 hr, Exp. 1) was 16223.0 mg·min/dL and the “Blood Glucose AUC (mg/dL*min) Mean” value ([4]; OGTT, 336 hr, Exp. 2) was 8023.0 mg·min/dL. For the same substance, the “reduction in blood glucose AUC” value ([4]; after 168 hrs of injection, 1 mg/kg) was “about 25%”.

From patent publication US11447535B2, “GLP-1 analogues” (Sun Pharmaceutical Industries Limited, priority 2018, dated 2022)
